Experimental data as given in PMC12155096 (International Journal of Molecular Sciences, 2025).

Target: human CYP2D6 (Homo sapiens, UniProt P10635)
Assay: not given
Conditions: not given

Chain of human CYP2D6 (P10635 whole entry): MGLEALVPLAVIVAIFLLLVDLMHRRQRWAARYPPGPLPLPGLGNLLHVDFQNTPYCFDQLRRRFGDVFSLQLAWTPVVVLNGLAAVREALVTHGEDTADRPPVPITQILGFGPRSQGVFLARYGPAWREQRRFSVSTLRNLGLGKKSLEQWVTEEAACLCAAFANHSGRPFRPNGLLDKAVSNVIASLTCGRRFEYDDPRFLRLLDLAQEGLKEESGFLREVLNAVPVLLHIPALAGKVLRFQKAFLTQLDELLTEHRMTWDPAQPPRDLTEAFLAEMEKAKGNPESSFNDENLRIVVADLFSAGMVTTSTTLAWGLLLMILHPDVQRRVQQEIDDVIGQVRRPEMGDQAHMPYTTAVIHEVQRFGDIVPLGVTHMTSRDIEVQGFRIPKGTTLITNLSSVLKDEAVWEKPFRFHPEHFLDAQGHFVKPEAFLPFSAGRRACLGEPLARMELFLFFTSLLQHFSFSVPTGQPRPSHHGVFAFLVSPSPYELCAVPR

Row | SMILES | CYP2D6 IC50 (half-maximal inhibitory concentration) | CYP2D6 IC50 | CYP2D6 Efficacy | CYP2D6 Efficacy (in parenthesis) | IC50 [µM] | AC50 [µM]
1 | O=C1c2ccccc2C(=O)c2cc(Cl)ccc21 [2-Chloroanthraquinone] | Inactive |  |  |  |  | 
2 | N#Cc1c2ccccc2cc2ccccc12 [9-Cyanoanthracene] |  | Inactive |  |  |  | 
3 | c1ccc2c(c1)cc1ccc3cccc4ccc2c1c34 [Benzo(a)pyrene] |  | Inactive |  |  |  | 
4 | c1cc2ccc3ccc4ccc5cccc6c(c1)c2c3c4c56 [Benzo(g,h,i)perylene] |  | Inactive |  |  |  | 
5 | c1ccc2c(c1)-c1ccc3ccc4cccc5cc-2c1c3c45 [Indeno(1,2,3-cd)pyrene] | Inactive |  |  |  |  | 
6 | Cn1ccc2cc3c(cc21)CCN3C(=O)Nc1cccnc1 [SB-206553] | Inactive |  |  |  |  | 
7 | COc1cccc(CCc2ccccc2OCC(CN(C)C)OC(=O)CCC(=O)O)c1.Cl (stereo not drawn) [Sarpogrelate hydrochloride] |  |  | 0.42 ± 0.24 (-101 ± 2) % |  |  | 
8 | CC(C)CC(N(C)C)C1(c2ccc(Cl)cc2)CCC1.Cl (stereo not drawn) [Sibutramine hydrochloride] |  |  |  | 4.24 ± 0.72 (-88 ± 6) % | 4.24 | 
9 | CCNc1nc(Cl)nc(NC(C)(C)C)n1 [Terbutylazine] |  | Inactive |  |  |  | 
10 | CCN(CC)CCOc1ccc(Cc2ccccc2)cc1.Cl [Tesmilifene hydrochloride] |  |  |  |  | 12.1 | 12.1
11 | CCCCCCCC[N+](CCCCCCCC)(CCCCCCCC)CCCCCCCC.[Br-] [Tetra-N-octylammonium bromide] |  |  |  |  | 0.4 | 
12 | CCCCCCCC[P+](CCCCCCCC)(CCCCCCCC)CCCCCCCC.[Br-] [Tetraoctylphosphonium bromide] |  |  |  |  | 0.75 | 
13 | N#Cc1c(-c2ccc(Cl)cc2)[nH]c(C(F)(F)F)c1Br [Tralopyril] |  |  |  |  | 65.8 | 

Target: T1, human CYP2C19 (Homo sapiens, UniProt P33261)
T1 sequence (P33261 whole entry): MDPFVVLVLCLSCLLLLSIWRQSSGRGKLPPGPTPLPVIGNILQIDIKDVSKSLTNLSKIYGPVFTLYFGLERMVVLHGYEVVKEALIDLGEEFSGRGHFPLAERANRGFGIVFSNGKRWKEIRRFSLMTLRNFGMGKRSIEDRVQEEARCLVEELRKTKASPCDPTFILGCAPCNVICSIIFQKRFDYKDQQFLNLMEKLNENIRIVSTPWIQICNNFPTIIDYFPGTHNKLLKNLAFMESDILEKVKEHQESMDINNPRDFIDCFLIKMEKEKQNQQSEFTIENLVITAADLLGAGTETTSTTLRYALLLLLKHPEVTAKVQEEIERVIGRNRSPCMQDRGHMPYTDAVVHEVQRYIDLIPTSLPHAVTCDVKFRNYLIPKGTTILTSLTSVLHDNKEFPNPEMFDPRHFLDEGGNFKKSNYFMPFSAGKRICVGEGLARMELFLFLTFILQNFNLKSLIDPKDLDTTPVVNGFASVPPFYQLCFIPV
Assay: biochemical
Conditions: CYP2C19 IC50

Row | SMILES | IC50 [µM]
14 | N#Cc1c2ccccc2cc2ccccc12 [9-Cyanoanthracene] | 16

Same assay, conditions: CYP2C19 IC50 (half-maximal inhibitory concentration)

Row | SMILES | IC50 [µM]
15 | c1ccc2c(c1)-c1ccc3ccc4cccc5cc-2c1c3c45 [Indeno(1,2,3-cd)pyrene] | 15.5

Target: T2, human CYP1A2 (Homo sapiens, UniProt P05177)
T2 sequence (P05177 1-516): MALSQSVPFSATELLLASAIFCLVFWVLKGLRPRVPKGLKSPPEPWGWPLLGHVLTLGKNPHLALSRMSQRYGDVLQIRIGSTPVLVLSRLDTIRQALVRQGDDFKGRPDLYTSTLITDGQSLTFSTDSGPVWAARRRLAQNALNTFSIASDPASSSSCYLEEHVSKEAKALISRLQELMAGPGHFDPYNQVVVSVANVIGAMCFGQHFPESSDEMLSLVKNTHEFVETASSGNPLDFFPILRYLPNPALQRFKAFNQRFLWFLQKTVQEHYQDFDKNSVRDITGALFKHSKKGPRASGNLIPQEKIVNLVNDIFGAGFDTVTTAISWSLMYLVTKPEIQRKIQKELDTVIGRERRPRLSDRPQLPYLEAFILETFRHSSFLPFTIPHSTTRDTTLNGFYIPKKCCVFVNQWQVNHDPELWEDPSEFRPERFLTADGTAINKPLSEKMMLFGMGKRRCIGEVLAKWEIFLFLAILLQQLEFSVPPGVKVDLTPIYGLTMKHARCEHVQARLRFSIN
Assay: not given
Conditions: not given

Row | SMILES | CYP1A2 Efficacy (in parenthesis) | IC50 [µM] | CYP1A2 IC50 (half-maximal inhibitory concentration)
16 | Cn1ccc2cc3c(cc21)CCN3C(=O)Nc1cccnc1 [SB-206553] | 0.07 ± 0.01 (-96 ± 6) % | 0.07 | 
17 | COc1cccc(CCc2ccccc2OCC(CN(C)C)OC(=O)CCC(=O)O)c1.Cl (stereo not drawn) [Sarpogrelate hydrochloride] |  | 16.2 | 
18 | CC(C)CC(N(C)C)C1(c2ccc(Cl)cc2)CCC1.Cl (stereo not drawn) [Sibutramine hydrochloride] |  |  | Inactive
19 | CCNc1nc(Cl)nc(NC(C)(C)C)n1 [Terbutylazine] |  | 10.8 | 
20 | CCN(CC)CCOc1ccc(Cc2ccccc2)cc1.Cl [Tesmilifene hydrochloride] |  |  | Inactive
21 | CCCCCCCC[N+](CCCCCCCC)(CCCCCCCC)CCCCCCCC.[Br-] [Tetra-N-octylammonium bromide] |  | 73.8 | 
22 | CCCCCCCC[P+](CCCCCCCC)(CCCCCCCC)CCCCCCCC.[Br-] [Tetraoctylphosphonium bromide] |  | 57.7 | 
23 | N#Cc1c(-c2ccc(Cl)cc2)[nH]c(C(F)(F)F)c1Br [Tralopyril] |  | 0.33 | 

Target: T3, human CYP2C9 (Homo sapiens, UniProt P11712)
T3 sequence (P11712 whole entry): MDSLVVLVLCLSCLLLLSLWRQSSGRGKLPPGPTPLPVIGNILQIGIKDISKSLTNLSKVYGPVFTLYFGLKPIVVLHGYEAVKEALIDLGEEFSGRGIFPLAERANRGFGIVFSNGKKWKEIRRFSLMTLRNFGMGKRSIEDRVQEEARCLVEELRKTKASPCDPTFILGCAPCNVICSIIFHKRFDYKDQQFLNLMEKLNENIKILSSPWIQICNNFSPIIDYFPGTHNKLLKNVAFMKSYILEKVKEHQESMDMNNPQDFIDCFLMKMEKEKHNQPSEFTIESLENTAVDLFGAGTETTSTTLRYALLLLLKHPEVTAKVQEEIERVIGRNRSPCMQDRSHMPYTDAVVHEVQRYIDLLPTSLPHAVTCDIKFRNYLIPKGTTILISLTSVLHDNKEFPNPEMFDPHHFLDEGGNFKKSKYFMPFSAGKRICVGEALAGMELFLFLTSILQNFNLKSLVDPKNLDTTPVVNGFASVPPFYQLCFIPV
Assay: not given
Conditions: not given

Row | SMILES | CYP2C9 IC50 (half-maximal inhibitory concentration) | CYP2C9 IC50 | IC50 [µM]
24 | O=C1c2ccccc2C(=O)c2cc(Cl)ccc21 [2-Chloroanthraquinone] | Inactive |  | 
25 | c1cc2ccc3ccc4ccc5cccc6c(c1)c2c3c4c56 [Benzo(g,h,i)perylene] |  | Inactive | 
26 | Cn1ccc2cc3c(cc21)CCN3C(=O)Nc1cccnc1 [SB-206553] | Inactive |  | 
27 | COc1cccc(CCc2ccccc2OCC(CN(C)C)OC(=O)CCC(=O)O)c1.Cl (stereo not drawn) [Sarpogrelate hydrochloride] | Inactive |  | 
28 | CC(C)CC(N(C)C)C1(c2ccc(Cl)cc2)CCC1.Cl (stereo not drawn) [Sibutramine hydrochloride] | Inactive |  | 
29 | CCNc1nc(Cl)nc(NC(C)(C)C)n1 [Terbutylazine] |  |  | 0.62
30 | CCN(CC)CCOc1ccc(Cc2ccccc2)cc1.Cl [Tesmilifene hydrochloride] | Inactive |  | 
31 | CCCCCCCC[N+](CCCCCCCC)(CCCCCCCC)CCCCCCCC.[Br-] [Tetra-N-octylammonium bromide] |  |  | 34.2
32 | CCCCCCCC[P+](CCCCCCCC)(CCCCCCCC)CCCCCCCC.[Br-] [Tetraoctylphosphonium bromide] |  |  | 23.2
33 | N#Cc1c(-c2ccc(Cl)cc2)[nH]c(C(F)(F)F)c1Br [Tralopyril] |  |  | 10.4

Target: Photinus pyralis (firefly) luciferase (Photinus pyralis, UniProt P08659)
Sequence (P08659 whole entry): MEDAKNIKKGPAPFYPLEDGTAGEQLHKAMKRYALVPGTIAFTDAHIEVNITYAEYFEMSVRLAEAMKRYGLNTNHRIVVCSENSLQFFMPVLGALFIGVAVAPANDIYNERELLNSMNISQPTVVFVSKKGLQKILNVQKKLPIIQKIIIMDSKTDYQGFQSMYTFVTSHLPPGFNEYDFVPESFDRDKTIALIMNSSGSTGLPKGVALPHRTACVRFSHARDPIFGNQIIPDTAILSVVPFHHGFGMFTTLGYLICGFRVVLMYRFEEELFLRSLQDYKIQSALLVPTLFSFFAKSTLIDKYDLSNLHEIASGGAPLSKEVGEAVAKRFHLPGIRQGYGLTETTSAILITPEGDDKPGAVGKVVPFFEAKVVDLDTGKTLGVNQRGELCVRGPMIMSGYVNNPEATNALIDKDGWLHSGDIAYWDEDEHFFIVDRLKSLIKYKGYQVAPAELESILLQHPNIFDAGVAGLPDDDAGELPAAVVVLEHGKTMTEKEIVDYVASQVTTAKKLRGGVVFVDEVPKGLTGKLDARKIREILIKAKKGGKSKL
Assay: biochemical
Assay type: biochemical
Conditions: not given

Row | SMILES | Luciferase IC50 (half-maximal inhibitory concentration) | Luciferase IC50 | IC50 [µM] | Luciferase Efficacy (in parenthesis)
34 | O=C1c2ccccc2C(=O)c2cc(Cl)ccc21 [2-Chloroanthraquinone] | Inactive |  |  | 
35 | N#Cc1c2ccccc2cc2ccccc12 [9-Cyanoanthracene] |  | Inactive |  | 
36 | c1ccc2c(c1)cc1ccc3cccc4ccc2c1c34 [Benzo(a)pyrene] |  |  | 16.4 | 
37 | c1cc2ccc3ccc4ccc5cccc6c(c1)c2c3c4c56 [Benzo(g,h,i)perylene] |  | Inactive |  | 
38 | c1ccc2c(c1)-c1ccc3ccc4cccc5cc-2c1c3c45 [Indeno(1,2,3-cd)pyrene] |  |  | 12.9 | 
39 | Cn1ccc2cc3c(cc21)CCN3C(=O)Nc1cccnc1 [SB-206553] |  |  |  | 4.77 ± 1.70 (-73 ± 12) %
40 | COc1cccc(CCc2ccccc2OCC(CN(C)C)OC(=O)CCC(=O)O)c1.Cl (stereo not drawn) [Sarpogrelate hydrochloride] | Inactive |  |  | 
41 | CC(C)CC(N(C)C)C1(c2ccc(Cl)cc2)CCC1.Cl (stereo not drawn) [Sibutramine hydrochloride] | Inactive |  |  | 
42 | CCNc1nc(Cl)nc(NC(C)(C)C)n1 [Terbutylazine] |  | Inactive |  | 
43 | CCN(CC)CCOc1ccc(Cc2ccccc2)cc1.Cl [Tesmilifene hydrochloride] | Inactive |  |  | 
44 | N#Cc1c(-c2ccc(Cl)cc2)[nH]c(C(F)(F)F)c1Br [Tralopyril] | Inactive |  |  | 

Same assay, conditions: read-out: Luciferase IC50

Row | SMILES | IC50 [µM]
45 | CCCCCCCC[N+](CCCCCCCC)(CCCCCCCC)CCCCCCCC.[Br-] [Tetra-N-octylammonium bromide] | 89.2
46 | CCCCCCCC[P+](CCCCCCCC)(CCCCCCCC)CCCCCCCC.[Br-] [Tetraoctylphosphonium bromide] | 65.5

Same assay, conditions: read-out: Luciferase IC50 (half-maximal inhibitory concentration)

Row | SMILES | IC50 [µM]
47 | Cn1ccc2cc3c(cc21)CCN3C(=O)Nc1cccnc1 [SB-206553] | 4.77

Target: T1, human CYP2C19
Assay: not given
Conditions: not given

Row | SMILES | CYP2C19 IC50 (half-maximal inhibitory concentration) | CYP2C19 IC50 | IC50 [µM] | CYP2C19 Efficacy (in parenthesis) | AC50 [µM]
48 | O=C1c2ccccc2C(=O)c2cc(Cl)ccc21 [2-Chloroanthraquinone] | Inactive |  |  |  | 
49 | c1ccc2c(c1)cc1ccc3cccc4ccc2c1c34 [Benzo(a)pyrene] |  | Inactive |  |  | 
50 | c1cc2ccc3ccc4ccc5cccc6c(c1)c2c3c4c56 [Benzo(g,h,i)perylene] |  | Inactive |  |  | 
51 | Cn1ccc2cc3c(cc21)CCN3C(=O)Nc1cccnc1 [SB-206553] | Inactive |  |  |  | 
52 | COc1cccc(CCc2ccccc2OCC(CN(C)C)OC(=O)CCC(=O)O)c1.Cl (stereo not drawn) [Sarpogrelate hydrochloride] |  |  | 36.8 |  | 
53 | CC(C)CC(N(C)C)C1(c2ccc(Cl)cc2)CCC1.Cl (stereo not drawn) [Sibutramine hydrochloride] |  |  | 8.47 | 8.47 ± 1.44 (-127 ± 8) % | 
54 | CCNc1nc(Cl)nc(NC(C)(C)C)n1 [Terbutylazine] |  |  | 31.2 |  | 
55 | CCN(CC)CCOc1ccc(Cc2ccccc2)cc1.Cl [Tesmilifene hydrochloride] |  |  | 0.43 |  | 0.43
56 | CCCCCCCC[N+](CCCCCCCC)(CCCCCCCC)CCCCCCCC.[Br-] [Tetra-N-octylammonium bromide] |  |  | 16.4 |  | 
57 | CCCCCCCC[P+](CCCCCCCC)(CCCCCCCC)CCCCCCCC.[Br-] [Tetraoctylphosphonium bromide] |  |  | 14 |  | 
58 | N#Cc1c(-c2ccc(Cl)cc2)[nH]c(C(F)(F)F)c1Br [Tralopyril] |  |  | 35 |  | 

Target: T3, human CYP2C9
Assay: biochemical
Conditions: CYP2C9 IC50

Row | SMILES | IC50 [µM]
59 | N#Cc1c2ccccc2cc2ccccc12 [9-Cyanoanthracene] | 6.16
60 | c1ccc2c(c1)cc1ccc3cccc4ccc2c1c34 [Benzo(a)pyrene] | 23.4

Same assay, conditions: CYP2C9 IC50 (half-maximal inhibitory concentration)

Row | SMILES | IC50 [µM]
61 | c1ccc2c(c1)-c1ccc3ccc4cccc5cc-2c1c3c45 [Indeno(1,2,3-cd)pyrene] | 5.5

Target: T2, human CYP1A2
Assay: biochemical
Conditions: not given

Row | SMILES | IC50 [µM]
62 | O=C1c2ccccc2C(=O)c2cc(Cl)ccc21 [2-Chloroanthraquinone] | 0.11 ± 0.03

Same assay, conditions: CYP1A2 IC50

Row | SMILES | IC50 [µM]
63 | N#Cc1c2ccccc2cc2ccccc12 [9-Cyanoanthracene] | 0.22
64 | c1ccc2c(c1)cc1ccc3cccc4ccc2c1c34 [Benzo(a)pyrene] | 0.3
65 | c1cc2ccc3ccc4ccc5cccc6c(c1)c2c3c4c56 [Benzo(g,h,i)perylene] | 0.16

Same assay, conditions: CYP1A2 IC50 (half-maximal inhibitory concentration)

Row | SMILES | IC50 [µM]
66 | c1ccc2c(c1)-c1ccc3ccc4cccc5cc-2c1c3c45 [Indeno(1,2,3-cd)pyrene] | 0.18

Target: CYP3A4 (Homo sapiens, UniProt P08684)
Sequence (P08684 whole entry): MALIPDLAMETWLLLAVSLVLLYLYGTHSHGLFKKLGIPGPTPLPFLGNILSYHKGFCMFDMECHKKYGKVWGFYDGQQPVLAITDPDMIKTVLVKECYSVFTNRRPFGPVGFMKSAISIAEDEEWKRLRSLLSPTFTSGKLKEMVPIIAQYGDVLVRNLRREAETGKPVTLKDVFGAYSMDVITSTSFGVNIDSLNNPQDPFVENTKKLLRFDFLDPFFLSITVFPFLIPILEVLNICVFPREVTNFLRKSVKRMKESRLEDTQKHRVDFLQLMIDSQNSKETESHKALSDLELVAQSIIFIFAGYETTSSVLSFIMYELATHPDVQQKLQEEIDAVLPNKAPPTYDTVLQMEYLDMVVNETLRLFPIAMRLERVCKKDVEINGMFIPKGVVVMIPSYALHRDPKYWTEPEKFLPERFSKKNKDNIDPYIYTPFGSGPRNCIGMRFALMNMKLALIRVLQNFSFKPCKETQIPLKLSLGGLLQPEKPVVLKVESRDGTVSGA
Assay: not given
Conditions: not given

Row | SMILES | CYP3A4 IC50 (half-maximal inhibitory concentration) | CYP3A4 IC50 | CYP3A4 Efficacy (in parenthesis) | IC50 [µM] | AC50 [µM]
67 | O=C1c2ccccc2C(=O)c2cc(Cl)ccc21 [2-Chloroanthraquinone] | Inactive |  |  |  | 
68 | N#Cc1c2ccccc2cc2ccccc12 [9-Cyanoanthracene] |  | Inactive |  |  | 
69 | c1ccc2c(c1)cc1ccc3cccc4ccc2c1c34 [Benzo(a)pyrene] |  | Inactive |  |  | 
70 | c1cc2ccc3ccc4ccc5cccc6c(c1)c2c3c4c56 [Benzo(g,h,i)perylene] |  | Inactive |  |  | 
71 | c1ccc2c(c1)-c1ccc3ccc4cccc5cc-2c1c3c45 [Indeno(1,2,3-cd)pyrene] | Inactive |  |  |  | 
72 | Cn1ccc2cc3c(cc21)CCN3C(=O)Nc1cccnc1 [SB-206553] |  |  | 3.55 ± 0.64 (-82 ± 5) % | 3.55 | 
73 | COc1cccc(CCc2ccccc2OCC(CN(C)C)OC(=O)CCC(=O)O)c1.Cl (stereo not drawn) [Sarpogrelate hydrochloride] |  |  |  | 6.72 | 
74 | CC(C)CC(N(C)C)C1(c2ccc(Cl)cc2)CCC1.Cl (stereo not drawn) [Sibutramine hydrochloride] |  |  | 0.94 ± 0.06 (-73 ± 3) % | 0.94 | 
75 | CCNc1nc(Cl)nc(NC(C)(C)C)n1 [Terbutylazine] |  | Inactive |  |  | 
76 | CCN(CC)CCOc1ccc(Cc2ccccc2)cc1.Cl [Tesmilifene hydrochloride] | 14.21 ± 3.96 (44 ± 9) µM |  |  |  | 14.2
77 | CCCCCCCC[N+](CCCCCCCC)(CCCCCCCC)CCCCCCCC.[Br-] [Tetra-N-octylammonium bromide] |  |  |  | 1.87 | 
78 | CCCCCCCC[P+](CCCCCCCC)(CCCCCCCC)CCCCCCCC.[Br-] [Tetraoctylphosphonium bromide] |  |  |  | 1.73 | 
79 | N#Cc1c(-c2ccc(Cl)cc2)[nH]c(C(F)(F)F)c1Br [Tralopyril] | Inactive |  |  |  | 
